Experimental data taken from patent publication US4612302A, “Clinical use of somatostatin analogues” (Brigham and Women's Hospital, priority 1983, dated 1986).
Non-standard residues stand in square brackets, D forms with d. Residues, ends and D or L forms follow the SMILES beside them. No end group written: not given here.

Experiments:
phagocytes = experiment: Carbon clearance (colloidal carbon / India ink) from the blood of rats; format: in vivo, female Spraque-Dawley rats; settings: for India ink (μl/ml blood) 3 min: 3 min after i.v. colloidal carbon; for India ink (μl/ml blood) 3 min / India ink (μl/ml blood) 6 min / India ink (μl/ml blood) 12 min / India ink (μl/ml blood) 24 min: 50 μg i.v. once daily for 3 days before carbon; for India ink (μl/ml blood) 6 min: 6 min after i.v. colloidal carbon; for India ink (μl/ml blood) 12 min: 12 min after i.v. colloidal carbon; for India ink (μl/ml blood) 24 min: 24 min after i.v. colloidal carbon; for Speed of action in carbon clearance compared with somatostatin: greater carbon clearance at 6 minutes than somatostatin; for Potency in carbon clearance compared with somatostatin: lower levels of carbon at the late time intervals
Protocol: Rats were injected either with saline or with a colloidal carbon suspension, and the time required for clearing of colloidal particles from the blood stream was measured. In a comparative experiment, zymosan, an agent known to increase the activity or phagocytes, was administered instead of the somatostatin analogue. In rats which received injections of saline, the disappearance of colloidal carbon from the blood was virtually linear, an expected result based on previous studies by others. Administration of a somatostatin analogue markedly accelerated the carbon clearance, even more so than for somatostatin itself.
(§1) All of the experiments described below were performed in female Spraque-Dawley rats (ESS Laboratories, Lynnfield, Mass.) with an initial body weight of 150-180 g, and with unlimited access to Purina laboratory chow and tap water. Control and experimental groups consisted of 3-4 rats. Each experiment was repeated at least twice and the results were pooled. Analogue I is cyclo[L-Pro-Phe-D-Trp-Lys-Thr-L-Phe]. Analogue II is cyclo[L-Phe-Phe-L-Trp-Lys-Thr-D-Phe]. These are preferred compounds for all aspects of the invention. The compound can be synthesized according to the procedure described in Veber et al., Nature, 292, 55-58 (1981), which is herein incorporated by reference. Basically, the linear peptide is prepared by a solid phase technique, for example, using a Beckman 990 peptide synthesizer following the protocol described in Strachan et al, J. Med. Chem., 22, 586-588 (1979), which is herein incorporated by reference. The linear peptide can then be cyclized by the technique of Veber et al, Proc. Natl. Acad. Sci. USA, 75, 2636-2640 (1978), which is also herein incorporated by reference. Linear or cyclic somatostatin (Serono) or a somatostatin analogue was injected under mild ether anesthesia at 50 μg in 0.5 ml of saline into the jugular vein once daily for 3 consecutive days prior to injection with carbon. Control animals were injected with the same amount of saline. In all of the carbon clearance experiments, 0.1 ml/100 g of the supernatant of centrifuged (3000 rpm/15 min) colloidal carbon (Wagner's india ink) was injected i.v. under mild ether anesthesia. Blood samples (50 μl) were obtained with heparinized glass capillaries and by puncture of the retro-orbital venous plexus at 3, 6, 12 and 24 minutes after the administration of carbon. The blood samples were lysed in 2 ml of 0.1% Na2 CO3 solution and the quantity of carbon in the blood was measured.

[1] = test system: liver injury induced by galactosamine; experiment: Galactosamine-induced liver injury (hepatic necrosis and inflammation) in rats; format: in vivo, female Spraque-Dawley rats; settings: 28 hr after galactosamine 1 g/kg i.p., somatostatin 250 μg, analogues 125 μg i.p.; for Liver histology (Scale: 0-4): scale 0-4, 4 = greatest damage
Protocol: as §1
The liver protection studies included the effect of somatostatin and analogues on liver injury induced by galactosamine or phalloidin. Galactosamine-induced hepatic necrosis and inflammation was produced by injecting rats with 1 g/kg of galactosamine i.p. at 0 hr. Regular somatostatin was injected at 250 μg, analogues at 125 μg i.p. at -30 and […]. The animals were killed at 28 hr after galactosamine. Liver damage was measured by the elevation of serum transaminase (SGOT) and by liver histology (scale: 0-4 with 4 indicating the greatest damage).

[2] = test system: liver injury induced by phalloidin; experiment: Phalloidin-induced liver and hepatic blood vessel lesions in rats; format: in vivo; settings: phalloidin 0.12 mg per 100 g i.p.
Protocol: This toxin kills rats within about 4 hours after intraperitoneal injection. Rats injected with 0.12 mg phalloidin per 100 g body weight (i.p.) show a massive increase in liver size accompanied by hemorrhage. In a control group of rats given phalloidin but no somatostatin analogue, 22 of 24 rats died within 2-4 hours.
In both cases, rats were given saline (control), phalloidin alone, or phalloidin and a somatostatin analogue. Somatostatin analogues were given in subcutaneous injections in a solution of protamine sulfate and zinc chloride in order to prolong its effectiveness, or in normal saline.
In the biochemical experiments, the animals were also injected with Evans blue 15 min before autopsy. At autopsy the portal vein was perfused in situ with 20 ml of saline to remove blood from hepatic vaculature. Phalloidin caused a time dependent increase in the hepatic uptake of Evans blue, indicative of leakage of blood into the tissue through blood vessel lesions. Somatostatin analogue treatment virtually abolished this enhanced uptake of the dye. In the morphologic experiments, groups of rats were also injected with colloidal carbon (India ink, […] i.v.) 15 min before autopsy. At that time pieces of liver were processed for subsequent light or electron microscopic studies. […]

Compound	India ink (μl/ml blood) 3 min (phagocytes)	India ink (μl/ml blood) 6 min (phagocytes)	India ink (μl/ml blood) 12 min (phagocytes)	India ink (μl/ml blood) 24 min (phagocytes)	Speed of action in carbon clearance compared with somatostatin (phagocytes)	Potency in carbon clearance compared with somatostatin (phagocytes)	SGOT (U/l) [1]	Liver histology (Scale: 0-4) [1]	Histologic examination of the liver after phalloidin [2]	Mortality after phalloidin ([2]; control 22 of 24 rats died)
C[C@@H](O)[C@@H]1NC(=O)[C@H](CCCCN)NC(=O)[C@@H](Cc2c[nH]c3ccccc23)NC(=O)[C@H](Cc2ccccc2)NC(=O)[C@@H]2CCCN2C(=O)[C@H](Cc2ccccc2)NC1=O [Analogue I, cyclo[L-Pro-Phe-D-Trp-Lys-Thr-L-Phe]] (cyclo(PF[dW]KTF))	12.5 ± 3.0 μl/ml blood	6.9 ± 0.9 μl/ml blood	2.6 ± 0.7 μl/ml blood	2.4 ± 0.5 μl/ml blood	faster acting	more potent than somatostatin	573 ± 138 U/l	1.1 ± 0.1		
C[C@@H](O)[C@@H]1NC(=O)[C@H](CCCCN)NC(=O)[C@H](Cc2c[nH]c3ccccc23)NC(=O)[C@H](Cc2ccccc2)NC(=O)[C@H](Cc2ccccc2)NC(=O)[C@@H](Cc2ccccc2)NC1=O [Analogue II, cyclo[L-Phe-Phe-L-Trp-Lys-Thr-D-Phe]] (cyclo(FFWKT[dF]))	13.2 ± 2.0 μl/ml blood	5.6 ± 0.5 μl/ml blood	3.2 ± 0.9 μl/ml blood	1.8 ± 0.2 μl/ml blood	faster acting	more potent than somatostatin	700 U/l	1.0		
C[C@H](N)C(=O)NCC(=O)N[C@H]1CSSC[C@@H](C(=O)O)NC(=O)[C@H](CO)NC(=O)[C@H]([C@@H](C)O)NC(=O)[C@H](Cc2ccccc2)NC(=O)[C@H]([C@@H](C)O)NC(=O)[C@H](CCCCN)NC(=O)[C@H](Cc2c[nH]c3ccccc23)NC(=O)[C@H](Cc2ccccc2)NC(=O)[C@H](Cc2ccccc2)NC(=O)[C@H](CC(N)=O)NC(=O)[C@H](CCCCN)NC1=O [Regular linear somatostatin, somatostatin]	11.7 ± 0.1 μl/ml blood	11.9 ± 2.6 μl/ml blood	5.3 ± 1.4 μl/ml blood	2.6 ± 0.1 μl/ml blood						
somatostatin (AGCKNFFWKTFTSC; not fully specified (bridges); cysteine pairing not given here; UniProt P61278 103-116, looked up) [cyclic tetradecapeptide hormone, reference compound]							1757 ± 681 U/l	2.6 ± 0.3	milder vacuolization of hepatocytes and less congestion	significantly smaller number of rats
